According to patent US7091204B2, “Sulfonamides” (SmithKline Beecham Corporation, priority 2001, dated 2006):

Biological target: T1, human and rat GPR-14 (UniProt Q9UKP6)
T1 sequence (Q9UKP6 1-389): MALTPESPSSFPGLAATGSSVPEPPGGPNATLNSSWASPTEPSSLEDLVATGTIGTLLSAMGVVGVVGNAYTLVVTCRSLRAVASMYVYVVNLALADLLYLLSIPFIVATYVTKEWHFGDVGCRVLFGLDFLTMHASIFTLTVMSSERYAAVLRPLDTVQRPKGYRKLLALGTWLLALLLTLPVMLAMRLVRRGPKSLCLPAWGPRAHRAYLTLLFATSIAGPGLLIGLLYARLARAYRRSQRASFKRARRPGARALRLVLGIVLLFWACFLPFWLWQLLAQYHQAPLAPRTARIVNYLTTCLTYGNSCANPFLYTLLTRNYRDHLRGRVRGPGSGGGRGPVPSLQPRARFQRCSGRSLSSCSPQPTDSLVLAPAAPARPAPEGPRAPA
Test: Radioligand binding: [125I] h-U-II binding to HEK-293 cell membranes
Conditions: HEK-293 cell membranes with stable cloned GPR-14; 200 pM [125I] h-U-II; species for the value not stated
Protocol: HEK-293 cell membranes containing stable cloned human and rat GPR-14 (20 ug/assay) were incubated with 200 pM [125I] h-U-II (200 Ci/mmol^−1 in the presence of increasing concentrations of test compounds in DMSO (0.1 nM to 10 uM), in a final incubation volume of 200 ul (20 mM Tris-HCl, 5 mM MgCl2). Incubation was done for 30 minutes at room temperature followed by filtration GF/B filters with Brandel cell harvester. ^125I labeled U-II binding was quantitated by gamma counting. Nonspecific binding was defined by ^125I U-II binding in the presence of 100 nM of unlabeled human U-II. Analysis of the data was performed by nonlinear least square fitting.

Ki: 590 nM
SMILES: CN1CC[C@@H](Oc2cc(NS(=O)(=O)c3cnc(Cl)nc3OCC(F)(F)F)ccc2Cl)C1 [Example 14, 2-Chloro-4-(2,2,2-trifluoro-ethoxy)-pyrimidine-5-sulfonic acid [4-chloro-3-((R)-1-methyl-pyrrolidin-3-yloxy)-phenyl]-amide]
